# Data as given in ChEMBL document CHEMBL1201862, “PubChem BioAssay data set” (2004).
#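 Dose response: 5 concentrations. Exposure: 48 h. Format: 96-well plates. Endpoint: linear interpolation; highest concentration if not reached. At the GI50, growth is halved.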 The source made the active and inactive calls. Cut-off read from the data, not from the text of the source: active = GI50 up to about 1.1 µM and inactive = higher.
# What was measured:
# Experiment in all cases: NCI anticancer screen, dose series, 48 h
# A549 = test system: A549
# COLO 205 = test system: COLO 205
# A498 = test system: A498
# HCC 2998 = test system: HCC 2998
# RXF 393 = test system: RXF 393
# SF-539 = test system: SF-539
# U-251 = test system: U-251
# NCI-H226 = test system: NCI-H226
# HL-60 = test system: HL-60
# NCI-H460 = test system: NCI-H460
# UACC-62 = test system: UACC-62
# SK-MEL-5 = test system: SK-MEL-5
# Malme-3M = test system: Malme-3M
# UO-31 = test system: UO-31
# M14 = test system: M14
# HT-29 = test system: HT-29
# LOX IMVI = test system: LOX IMVI
# HOP-62 = test system: HOP-62
# HCT-116 = test system: HCT-116
# DMS-114 = test system: DMS-114
Compound,GI50 (A549),GI50 (COLO 205),GI50 (A498),GI50 (HCC 2998),GI50 (RXF 393),GI50 (SF-539),GI50 (U-251),GI50 (NCI-H226),GI50 (HL-60),GI50 (NCI-H460),GI50 (UACC-62),GI50 (SK-MEL-5),GI50 (Malme-3M),GI50 (UO-31),GI50 (M14),GI50 (HT-29),GI50 (LOX IMVI),GI50 (HOP-62),GI50 (HCT-116),GI50 (DMS-114)
C=C(C)[C@@H]1CCC2=C[C@H](CC(C)=CC3=CC(C)=C(O3)[C@@H]1OC)OC2=O,> 100 µM (inactive),> 100 µM (inactive),53.6 µM (inactive),> 100 µM (inactive),23.8 µM (inactive),77.3 µM (inactive),33.1 µM (inactive),73.8 µM (inactive),> 100 µM (inactive),> 100 µM (inactive),29.7 µM (inactive),> 100 µM (inactive),> 100 µM (inactive),> 100 µM (inactive),41.5 µM (inactive),–,–,–,–,–
COC(=O)C12CC3CC(CC(C(=O)O)(C3)C1)C2,> 100 µM (inactive),–,> 100 µM (inactive),> 100 µM (inactive),–,> 100 µM (inactive),> 100 µM (inactive),–,> 100 µM (inactive),> 100 µM (inactive),> 100 µM (inactive),> 100 µM (inactive),–,> 100 µM (inactive),> 100 µM (inactive),> 100 µM (inactive),> 100 µM (inactive),> 100 µM (inactive),> 100 µM (inactive),–
CCOC(=O)c1ccc(N(CCOS(=O)(=O)c2ccc(C)cc2)CCOS(=O)(=O)c2ccc(C)cc2)cc1,8.91 µM (inactive),> 100 µM (inactive),> 100 µM (inactive),> 100 µM (inactive),4.49 µM (inactive),< 0.01 µM (active),6.76 µM (inactive),–,–,4.66 µM (inactive),> 100 µM (inactive),> 100 µM (inactive),> 100 µM (inactive),12.8 µM (inactive),> 100 µM (inactive),> 100 µM (inactive),> 100 µM (inactive),–,27.3 µM (inactive),–
O=C1C(Cl)N(c2cccc(Cl)c2)C1c1c[nH]c2ccccc12 (stereo unspecified),> 100 µM (inactive),> 100 µM (inactive),–,–,> 100 µM (inactive),> 100 µM (inactive),> 100 µM (inactive),–,> 100 µM (inactive),> 100 µM (inactive),> 100 µM (inactive),> 100 µM (inactive),> 100 µM (inactive),> 100 µM (inactive),> 100 µM (inactive),> 100 µM (inactive),–,> 100 µM (inactive),> 100 µM (inactive),> 100 µM (inactive)
Clc1cc2c(c(CSC3=NCN(CC4CC4)CN3)c1)OCOC2,22.8 µM (inactive),13.6 µM (inactive),20.7 µM (inactive),15.2 µM (inactive),17.3 µM (inactive),20.3 µM (inactive),19.6 µM (inactive),20.7 µM (inactive),13.6 µM (inactive),17.8 µM (inactive),17.9 µM (inactive),17.7 µM (inactive),18.2 µM (inactive),12.7 µM (inactive),13.8 µM (inactive),20.3 µM (inactive),25.1 µM (inactive),21.9 µM (inactive),18.5 µM (inactive),–
Cc1ccc(NC(=O)CC(=O)n2nc(-c3ccccc3)c(/N=N/c3ccccc3Cl)c2-c2ccccc2)cc1,98.2 µM (inactive),> 10 µM (inactive),34 µM (inactive),> 10 µM (inactive),–,76.6 µM (inactive),60.8 µM (inactive),> 10 µM (inactive),0.458 µM (active),75.5 µM (inactive),45.4 µM (inactive),67.1 µM (inactive),48.3 µM (inactive),> 10 µM (inactive),88.3 µM (inactive),> 10 µM (inactive),92.5 µM (inactive),83.8 µM (inactive),39.5 µM (inactive),> 10 µM (inactive)
CN1NC(c2ccccc2)=C(C#N)C(=O)CC1c1ccc(Br)cc1 (stereo unspecified),32.2 µM (inactive),–,40.4 µM (inactive),34.5 µM (inactive),36.6 µM (inactive),–,> 10 µM (inactive),0.123 µM (active),29 µM (inactive),33.3 µM (inactive),–,14.2 µM (inactive),23.3 µM (inactive),–,20.9 µM (inactive),28.9 µM (inactive),35.4 µM (inactive),21.4 µM (inactive),36.8 µM (inactive),–
COc1ccc(-c2cc(-c3cc(OC)c(OC)c(OC)c3)cc(-c3cc4ccccc4oc3=O)n2)cc1,15 µM (inactive),> 100 µM (inactive),5.65 µM (inactive),17.3 µM (inactive),3.24 µM (inactive),2.76 µM (inactive),3.54 µM (inactive),3.95 µM (inactive),> 100 µM (inactive),5.78 µM (inactive),12.5 µM (inactive),5.97 µM (inactive),5.77 µM (inactive),8.28 µM (inactive),16.6 µM (inactive),9.4 µM (inactive),12.7 µM (inactive),2.25 µM (inactive),4.48 µM (inactive),–
CCOC(=O)CC(=O)CSc1c(-c2ccccc2)c(=O)n(-c2ccccc2)c(=S)n1-c1ccccc1,> 100 µM (inactive),> 100 µM (inactive),> 100 µM (inactive),> 100 µM (inactive),> 100 µM (inactive),> 100 µM (inactive),> 100 µM (inactive),> 100 µM (inactive),> 100 µM (inactive),> 100 µM (inactive),> 100 µM (inactive),–,> 100 µM (inactive),> 100 µM (inactive),> 100 µM (inactive),> 100 µM (inactive),> 100 µM (inactive),> 100 µM (inactive),> 100 µM (inactive),–
O=C(CC(C(=O)c1cccs1)c1ccc2c(c1)OCO2)c1ccc(Br)cc1 (stereo unspecified),> 100 µM (inactive),> 100 µM (inactive),> 100 µM (inactive),> 100 µM (inactive),–,–,> 100 µM (inactive),> 100 µM (inactive),> 100 µM (inactive),> 100 µM (inactive),> 100 µM (inactive),> 100 µM (inactive),> 100 µM (inactive),14.9 µM (inactive),> 100 µM (inactive),–,–,> 100 µM (inactive),–,–
CC(OC(C)(C)C)[C@H](NC(=O)OCC(Cl)(Cl)Cl)C(=O)O (stereo partly specified),> 100 µM (inactive),> 100 µM (inactive),> 100 µM (inactive),> 100 µM (inactive),87.9 µM (inactive),> 100 µM (inactive),> 100 µM (inactive),–,> 100 µM (inactive),> 100 µM (inactive),> 100 µM (inactive),> 100 µM (inactive),> 100 µM (inactive),> 100 µM (inactive),> 100 µM (inactive),> 100 µM (inactive),–,> 100 µM (inactive),> 100 µM (inactive),> 100 µM (inactive)
CC(=O)O[C@]12CCCCCC1C1(O)C(O)CCCC[C@H]12 (stereo partly specified),> 100 µM (inactive),> 100 µM (inactive),–,–,> 100 µM (inactive),–,> 100 µM (inactive),> 100 µM (inactive),> 100 µM (inactive),> 100 µM (inactive),> 100 µM (inactive),> 100 µM (inactive),> 100 µM (inactive),> 100 µM (inactive),> 100 µM (inactive),> 100 µM (inactive),> 100 µM (inactive),> 100 µM (inactive),–,> 100 µM (inactive)
Cc1ccc(-c2cc(-c3ccco3)c(C#N)c(=O)n2C2OC(CO)C(O)C(O)C2O)cc1 (stereo unspecified),–,> 100 µM (inactive),21.6 µM (inactive),> 100 µM (inactive),48.3 µM (inactive),–,33.3 µM (inactive),58.6 µM (inactive),> 100 µM (inactive),37.1 µM (inactive),42.3 µM (inactive),22 µM (inactive),41 µM (inactive),59.6 µM (inactive),67.5 µM (inactive),> 100 µM (inactive),68.1 µM (inactive),49.5 µM (inactive),94.8 µM (inactive),> 100 µM (inactive)
C=CCN1/C(=C(\C#N)c2nc3ccccc3[nH]2)Sc2c1nc[nH]c2=O,> 100 µM (inactive),> 100 µM (inactive),> 100 µM (inactive),> 100 µM (inactive),6.68 µM (inactive),> 100 µM (inactive),80.5 µM (inactive),–,> 100 µM (inactive),> 100 µM (inactive),> 100 µM (inactive),> 100 µM (inactive),> 100 µM (inactive),> 100 µM (inactive),> 100 µM (inactive),> 100 µM (inactive),–,> 100 µM (inactive),> 100 µM (inactive),> 100 µM (inactive)
N#CC1(C#N)C(=O)c2ccncc2C1=O,> 100 µM (inactive),> 100 µM (inactive),> 100 µM (inactive),> 100 µM (inactive),> 100 µM (inactive),> 100 µM (inactive),> 100 µM (inactive),> 100 µM (inactive),> 100 µM (inactive),> 100 µM (inactive),> 100 µM (inactive),> 100 µM (inactive),> 100 µM (inactive),> 100 µM (inactive),> 100 µM (inactive),> 100 µM (inactive),–,–,> 100 µM (inactive),–
O=C1NC2=C(CCCC/C2=N\O)C12CCCCC2,> 100 µM (inactive),–,> 100 µM (inactive),> 100 µM (inactive),> 100 µM (inactive),> 100 µM (inactive),> 100 µM (inactive),> 100 µM (inactive),32.7 µM (inactive),> 100 µM (inactive),> 100 µM (inactive),–,> 100 µM (inactive),> 100 µM (inactive),> 100 µM (inactive),> 100 µM (inactive),> 100 µM (inactive),> 100 µM (inactive),> 100 µM (inactive),> 100 µM (inactive)
